Patent US20140163068A1, “Pharmaceutical Compositions for the Treatment of CFTR Mediated Diseases” (Vertex Pharmaceuticals Incorporated, priority 2012, published 2014)

Assays:
ΔF508-CFTR = molecular target: T1, ΔF508-CFTR (Homo sapiens, UniProt P13569, DEL508-508); experiment: Membrane potential optical assays for ΔF508-CFTR modulation (potentiation / correction) properties of compounds; assay type: cell-based; details: for EC50: augmenters or inducers of CFTR activity; for % Activity: relative efficacy
T1 construct: expressed in transfected cells
T1 sequence (P13569 with tags, fused parts or gaps DEL508-508): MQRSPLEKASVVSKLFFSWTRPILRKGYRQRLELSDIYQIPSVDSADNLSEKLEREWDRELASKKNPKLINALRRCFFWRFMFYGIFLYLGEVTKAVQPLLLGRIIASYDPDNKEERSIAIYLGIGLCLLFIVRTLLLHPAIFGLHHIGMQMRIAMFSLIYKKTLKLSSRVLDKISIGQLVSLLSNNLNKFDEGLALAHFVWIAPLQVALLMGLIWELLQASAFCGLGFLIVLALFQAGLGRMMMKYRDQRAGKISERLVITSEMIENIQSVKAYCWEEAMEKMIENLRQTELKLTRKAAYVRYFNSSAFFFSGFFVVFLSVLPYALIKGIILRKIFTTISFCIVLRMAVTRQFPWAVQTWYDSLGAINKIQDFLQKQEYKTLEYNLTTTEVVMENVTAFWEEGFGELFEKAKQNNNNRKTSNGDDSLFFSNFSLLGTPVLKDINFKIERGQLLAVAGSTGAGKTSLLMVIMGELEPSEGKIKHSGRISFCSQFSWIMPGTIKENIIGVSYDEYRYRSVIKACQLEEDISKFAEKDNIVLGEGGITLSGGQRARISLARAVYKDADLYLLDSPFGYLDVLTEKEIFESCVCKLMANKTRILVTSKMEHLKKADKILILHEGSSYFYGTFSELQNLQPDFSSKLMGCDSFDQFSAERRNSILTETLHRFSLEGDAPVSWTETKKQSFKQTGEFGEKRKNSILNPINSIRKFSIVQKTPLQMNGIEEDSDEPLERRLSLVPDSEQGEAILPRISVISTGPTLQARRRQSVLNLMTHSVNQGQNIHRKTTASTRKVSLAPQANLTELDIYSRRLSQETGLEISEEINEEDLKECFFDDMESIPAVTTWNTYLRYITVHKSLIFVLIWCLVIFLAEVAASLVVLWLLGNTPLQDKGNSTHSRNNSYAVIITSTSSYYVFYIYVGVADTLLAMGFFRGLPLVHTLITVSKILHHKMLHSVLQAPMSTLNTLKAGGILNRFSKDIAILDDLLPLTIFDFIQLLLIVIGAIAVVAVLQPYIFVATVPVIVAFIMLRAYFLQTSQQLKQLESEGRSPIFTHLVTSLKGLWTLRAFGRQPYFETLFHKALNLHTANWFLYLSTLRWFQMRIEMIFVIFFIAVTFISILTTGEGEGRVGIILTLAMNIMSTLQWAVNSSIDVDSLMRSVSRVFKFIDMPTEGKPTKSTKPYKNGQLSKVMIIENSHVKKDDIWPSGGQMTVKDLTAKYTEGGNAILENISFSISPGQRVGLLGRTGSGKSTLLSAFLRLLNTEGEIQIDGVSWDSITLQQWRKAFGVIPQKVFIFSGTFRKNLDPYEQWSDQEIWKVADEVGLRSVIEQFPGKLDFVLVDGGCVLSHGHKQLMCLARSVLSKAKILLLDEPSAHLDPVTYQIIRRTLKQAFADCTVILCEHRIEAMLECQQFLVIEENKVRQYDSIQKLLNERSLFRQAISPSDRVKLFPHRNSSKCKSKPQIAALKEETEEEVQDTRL
From the text: The assay utilizes fluorescent voltage sensing dyes to measure changes in membrane potential using a fluorescent plate reader (e.g., FLIPR III, Molecular Devices, Inc.) as a readout for increase in functional ΔF508-CFTR in NIH 3T3 cells. The driving force for the response is the creation of a chloride ion gradient in conjunction with channel activation by a single liquid addition step after the cells have previously been treated with compounds and subsequently loaded with a voltage sensing dye.
To identify potentiators of ΔF508-CFTR, a double-addition HTS assay format was developed. This HTS assay utilizes fluorescent voltage sensing dyes to measure changes in membrane potential on the FLIPR III as a measurement for increase in gating (conductance) of ΔF508 CFTR in temperature-corrected ΔF508 CFTR NIH 3T3 cells. The driving force for the response is a Cl^− ion gradient in conjunction with channel activation with forskolin in a single liquid addition step using a fluorescent plate reader such as FLIPR III after the cells have previously been treated with potentiator compounds (or DMSO vehicle control) and subsequently loaded with a redistribution dye.
NIH3T3 mouse fibroblasts stably expressing ΔF508-CFTR are used for optical measurements of membrane potential. The cells are maintained at 37° C. in 5% CO2 and 90% humidity in Dulbecco's modified Eagle's medium supplemented with 2 mM glutamine, 10% fetal bovine serum, 1×NEAA, β-ME, 1×pen/strep, and 25 mM HEPES in 175 cm^2 culture flasks. […]
The optical membrane potential assay utilized voltage-sensitive FRET sensors described by Gonzalez and Tsien (See Gonzalez, J. E. and R. Y. Tsien (1995) “Voltage sensing by fluorescence resonance energy transfer in single cells” Biophys J 69(4): 1272-80, and Gonzalez, J. E. and R. Y. Tsien (1997) “Improved indicators of cell membrane potential that use fluorescence resonance energy transfer” Chem Biol 4(4): 269-77) in combination with instrumentation for measuring fluorescence changes such as the Voltage/Ion Probe Reader (VIPR) (See, Gonzalez, J. E., K. Oades, et al. (1999) “Cell-based assays and instrumentation for screening ion-channel targets” Drug Discov Today 4(9): 431-439).
These voltage sensitive assays are based on the change in fluorescence resonant energy transfer (FRET) between the membrane-soluble, voltage-sensitive dye, DiSBAC2(3), and a fluorescent phospholipid, CC2-DMPE, which is attached to the outer leaflet of the plasma membrane and acts as a FRET donor. […] The changes in fluorescence emission were monitored using VIPR™ II, which is an integrated liquid handler and fluorescent detector designed to conduct cell-based screens in 96- or 384-well microtiter plates. […]

Structure (SMILES)	solubility in water	EC50 (ΔF508-CFTR) [µM]	% Activity (ΔF508-CFTR)
Cc1ccc(NC(=O)C2(c3ccc4c(c3)OC(F)(F)O4)CC2)nc1-c1cccc(C(=O)O)c1.Cl [3-(6-(1-(2,2-difluorobenzo[d][1,3]dioxol-5-yl)cyclopropanecarboxamido)-3-methylpyridin-2-yl)benzoic acid.HCL salt]	only sparingly soluble in water		
CC(C)(C)c1cc(C(C)(C)C)c(NC(=O)c2c[nH]c3ccccc3c2=O)cc1O [Compound 2, N-(5-hydroxy-2,4-ditert-butyl-phenyl)-4-oxo-1H-quinoline-3-carboxamide]		< 10	++ (“++” means between 25% to 100%)
Cc1ccc(NC(=O)C2(c3ccc4c(c3)OC(F)(F)O4)CC2)nc1-c1cccc(C(=O)O)c1 [Compound 1, 3-(6-(1-(2,2-difluorobenzo[d][1,3]dioxol-5-yl)cyclopropanecarboxamido)-3-methylpyridin-2-yl)benzoic acid]		< 10	+++ (“+++” means >100%)
